Values quoted from earlier work, collected in patent publication US10154669B2, “Improving color and release profile of resin compositions comprising silver nanoparticles” (The Board of Regents of the University of Texas System, priority 2013, dated 2018).

Conditions: in water

C=C(C)C(=O)OC [methyl methacrylate]
water solubility: about 1.6 g in 100 g of water
